One series deals with T1, CHK1 (Homo sapiens, UniProt O14757).
T1 sequence (O14757 1-476): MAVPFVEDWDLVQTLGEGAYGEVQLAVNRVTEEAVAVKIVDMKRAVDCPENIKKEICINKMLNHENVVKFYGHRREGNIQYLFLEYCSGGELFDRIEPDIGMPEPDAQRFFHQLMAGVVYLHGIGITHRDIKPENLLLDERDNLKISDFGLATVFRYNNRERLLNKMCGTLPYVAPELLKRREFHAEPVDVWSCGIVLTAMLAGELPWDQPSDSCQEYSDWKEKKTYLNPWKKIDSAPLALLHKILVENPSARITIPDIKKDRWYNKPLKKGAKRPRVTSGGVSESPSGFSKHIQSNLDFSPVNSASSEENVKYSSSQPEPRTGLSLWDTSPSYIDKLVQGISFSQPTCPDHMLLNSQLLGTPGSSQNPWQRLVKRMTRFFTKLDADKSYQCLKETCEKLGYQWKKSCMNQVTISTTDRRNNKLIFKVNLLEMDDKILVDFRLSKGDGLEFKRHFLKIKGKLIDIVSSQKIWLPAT
In words: CHK1 high-throughput screening. It is filed as biochemical. The following applies: for % inhibition @ 20 μM: Table 4, repeated entries per example; for inhibition at 20 µM: read-out: % inhibition @ 20 μM, Table 4, repeated entries per example.

A further series has as its target T2, CDK4/Cyclin D3 complex (Homo sapiens, UniProt P11802).
T2 construct: made in house; host or cells: insect cells co-infected with baculovirus vectors
In words: CDK4/Cyclin D assay. It is filed as biochemical. As to conditions: Table 2. The method, boiled down: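 Insect-cell-expressed CDK4/cyclin D3 (50 nM) phosphorylating His-tagged Rb fragment (residues 386-928) with 25 μM [^32P]ATP in HEPES pH 7.4, MgCl2, 2% DMSO; 20 min at 30 °C, EDTA stop. Filter-captured 32P by phosphorimager; apparent Ki from competitive or tight-binding inhibition fits.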

Series [1] addresses T3, phosphorylated VEGF-R2Δ50 (Homo sapiens, UniProt P35968, DEL940-989/E990V).
T3 construct: VEGF-R2Δ50 contains residues 806-939 and 990-1171; made in house; host or cells: baculovirus/insect cells
In words: VEGF-R2 ELISA assay. It is filed as biochemical. The following applies: * determined with ELISA assay, read-out: FLVK-P Ki. The method, boiled down: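 Pre-autophosphorylated human VEGF-R2Δ50 (residues 806-939/990-1171, E990V; baculovirus) at 0.8 nM was run with 2 μM biotin-gastrin(1-17), 20 μM ATP, 26 mM MgCl2, 2 mM MnCl2, pH 7.5 Hepes. Phosphopeptide was captured on streptavidin and detected by anti-pTyr-HRP/ABTS at 405 nm; Ki came from activity at varying compound concentrations.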

Another series has as its target CDK2/Cyclin A complex (Homo sapiens, UniProt P24941). Put plainly: CDK2/Cyclin A assay. It is filed as biochemical. As to conditions: Table 2. The essentials:
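Radiometric assay: 150 nM CDK2/cyclin A (insect-cell CDK2, truncated cyclin A) phosphorylates His-tagged Rb fragment (residues 386-928) with 25 μM ATP plus [32P]ATP, pH 7.4 HEPES, 2% DMSO, 30 °C for 20 min. Filter-captured product counted by phosphorimager; apparent Ki from competitive or tight-binding inhibition fits.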

A further series addresses T4, FGF-R1 (Homo sapiens, UniProt P11362, C488A/C584S/L457V).
T4 construct: starting from the endogenous methionine residue 456 to glutamate 766; made in house; host or cells: baculovirus vector expression system
In words: FGF-R spectrophotometric assay. The following applies: for inhibition at 1 µM: Table 3, % inh @ 1 uM, read-out: FGF-P Ki (nM) (% inh @ 1 uM). It is filed as biochemical. The procedure:
FGF-R1 Construct for Assay: The intracellular kinase domain of human FGF-R1 was expressed using the baculovirus vector expression system starting from the endogenous methionine residue 456 to glutamate 766, according to the residue numbering system of Mohammadi et al., Mol. Cell. Biol., 16, 977-989 (1996). In addition, the construct also has the following 3 amino acid substitutions: L457V, C488A, and C584S.
The spectrophotometric assay was carried out as described above for VEGF-R2, except for the following changes in concentration: FGF-R=50 nM, ATP=2 mM, and poly(E4Y1)=15 mM.

The target in series [2] is T5, phosphorylated VEGF-R2Δ50 (FLVK-P) (Homo sapiens, UniProt P35968, DEL940-989/E990V).
T5 construct: VEGF-R2Δ50 contains residues 806-939 and 990-1171; made in house; host or cells: baculovirus/insect cells
In words: VEGF-R2 coupled spectrophotometric (FLVK-P) assay. It is filed as biochemical. As to conditions: Table 2; spectrophotometric assay. The method, boiled down:
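Baculovirus-expressed human VEGF-R2Δ50 (residues 806-939/990-1171, E990V) was autophosphorylated with 3 mM ATP, 40 mM MgCl2 for 2 h at 4° C. ADP formation was coupled via PK/LDH to NADH oxidation, read at 340 nm, with 5.1 mM poly(E4Y1), 1 mM ATP, 25 mM MgCl2, Hepes pH 7.5. Ki came from activity across compound concentrations.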

The next series concerns the target T6, LCK tyrosine kinase (Homo sapiens, UniProt P06239, C224D/P223M).
T6 construct: starting from amino acid residue 223 to the end of the protein at residue 509; made in house; host or cells: insect cells
In words: LCK spectrophotometric assay. It is filed as biochemical. The following applies: Table 3, read-out: LCK (% inh @ 1 uM).

Series [3] has as its target T7, unphosphorylated VEGF-R2Δ50 (FLVK) (Homo sapiens, UniProt P35968, DEL940-989/E990V).
T7 construct: VEGF-R2Δ50 contains residues 806-939 and 990-1171; made in house; host or cells: baculovirus/insect cells
In words: VEGF-R2 coupled spectrophotometric assay, unphosphorylated enzyme (FLVK). It is filed as biochemical. As to conditions: Table 3; some entries 'Slow binder'. The essentials:
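Unphosphorylated VEGF-R2Δ50 (5 to 40 nM) with 20 mM poly(E4Y1), 3 mM ATP, 60 mM MgCl2, 2 mM MnCl2 in 200 mM Hepes pH 7.5. ADP production coupled via PK/LDH to NADH oxidation, read at 340 nm. Ki from activity at varying compound concentrations.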

Series [4] concerns human umbilical vein endothelial cells (HUVEC). In words: HUVEC proliferation assay. It is filed as cell-based. As to conditions: Homo sapiens, HUVEC, Table 3. The essentials:
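Readout was MTT dye reduction (A595) after 72 h of stimulation with VEGF at 6 ng/ml final. Compound, in 0.1% DMSO final, was added 1 h before VEGF to HUVEC starved 24 h in 1% FBS. % inhibition was scaled between VEGF-alone and unstimulated wells; IC50 was fitted from triplicate dose curves.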

The structures appear in SMILES notation. Where “and” joins values, the source holds several entries; their conditions need not be identical. Equal values may be shown once. Read-outs that look alike come from different tables or passages of the source. A value given as a limit tells only on which side of the number the result lay.

T2 sequence (P11802 whole entry): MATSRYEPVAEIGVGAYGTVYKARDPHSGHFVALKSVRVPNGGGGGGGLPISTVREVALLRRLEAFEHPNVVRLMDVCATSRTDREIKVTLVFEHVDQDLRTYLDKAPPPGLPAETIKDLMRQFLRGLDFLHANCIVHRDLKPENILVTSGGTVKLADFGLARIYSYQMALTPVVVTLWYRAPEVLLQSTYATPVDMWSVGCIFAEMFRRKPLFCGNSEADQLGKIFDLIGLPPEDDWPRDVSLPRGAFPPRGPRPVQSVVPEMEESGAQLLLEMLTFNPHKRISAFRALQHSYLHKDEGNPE
T2 sequence (P30281 whole entry partner): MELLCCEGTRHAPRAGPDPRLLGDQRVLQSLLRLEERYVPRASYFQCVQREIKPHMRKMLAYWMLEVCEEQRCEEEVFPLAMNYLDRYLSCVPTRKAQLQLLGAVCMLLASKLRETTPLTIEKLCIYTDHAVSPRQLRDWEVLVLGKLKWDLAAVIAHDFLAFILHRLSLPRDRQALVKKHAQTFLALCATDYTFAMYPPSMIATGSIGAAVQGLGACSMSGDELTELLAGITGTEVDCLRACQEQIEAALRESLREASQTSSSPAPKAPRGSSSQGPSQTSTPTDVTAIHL
T6 sequence (P06239 223-509 P223M/C224D): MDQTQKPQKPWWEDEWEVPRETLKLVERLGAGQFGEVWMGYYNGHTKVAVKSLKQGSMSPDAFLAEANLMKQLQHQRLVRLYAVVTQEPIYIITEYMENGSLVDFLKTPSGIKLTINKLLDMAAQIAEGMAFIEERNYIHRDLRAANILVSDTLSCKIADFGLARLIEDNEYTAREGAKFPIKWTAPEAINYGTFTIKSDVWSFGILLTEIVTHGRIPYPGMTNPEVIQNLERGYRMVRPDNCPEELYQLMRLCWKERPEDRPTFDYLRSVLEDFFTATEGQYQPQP
T4 sequence (P11362 456-766 L457V/C488A/C584S): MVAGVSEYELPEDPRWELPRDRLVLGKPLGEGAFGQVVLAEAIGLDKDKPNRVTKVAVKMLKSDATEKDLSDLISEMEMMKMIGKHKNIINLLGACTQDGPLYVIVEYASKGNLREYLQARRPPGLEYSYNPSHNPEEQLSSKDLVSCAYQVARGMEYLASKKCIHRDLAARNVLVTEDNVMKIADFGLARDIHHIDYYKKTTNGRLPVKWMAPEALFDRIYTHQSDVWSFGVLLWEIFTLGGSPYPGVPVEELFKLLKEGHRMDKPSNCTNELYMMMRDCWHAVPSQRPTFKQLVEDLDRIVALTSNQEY
T7 sequence (P35968 with tags, fused parts or gaps DEL940-989/E990V limits assumed): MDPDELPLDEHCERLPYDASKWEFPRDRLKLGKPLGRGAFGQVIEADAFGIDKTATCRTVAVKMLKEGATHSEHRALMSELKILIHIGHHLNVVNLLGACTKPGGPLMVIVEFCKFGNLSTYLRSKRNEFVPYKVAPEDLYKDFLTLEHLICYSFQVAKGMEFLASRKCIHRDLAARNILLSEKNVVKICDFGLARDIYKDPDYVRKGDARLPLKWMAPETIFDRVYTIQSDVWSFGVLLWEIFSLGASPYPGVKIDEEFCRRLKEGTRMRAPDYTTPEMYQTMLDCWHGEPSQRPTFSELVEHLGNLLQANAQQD
T3 sequence (P35968 with tags, fused parts or gaps DEL940-989/E990V limits assumed): as above
T5 sequence (P35968 with tags, fused parts or gaps DEL940-989/E990V limits assumed): as above

Broadly, the melting point is the temperature of the solid-liquid transition. The term Ki denotes a dissociation constant, usually derived from enzyme kinetics or from competition with a known ligand. `Nc1nc(Nc2ccc(S(N)(=O)=O)cc2)sc1-c1nc(-c2ccccc2)cs1` [A(1), 4-(4′-Amino-4-phenyl-[2,5′]bithiazolyl-2′-ylamino)-benzenesulfonamide]: the melting point was 233 to 235 °C (dec.). On CHK1, the “% inhibition @ 20 μM” value is 49.8% and the inhibition at 20 µM came out at 36.6%. Also, the inhibition constant Ki at CDK4/Cyclin D3 complex came to 4600 nM. In series [1] (Table 2), the inhibition constant Ki was determined as 1400 nM.
`COc1ccc(-c2csc(-c3sc(Nc4ccc(S(N)(=O)=O)cc4)nc3N)n2)cc1` [A(2), 4-[4′-Amino-4-(4-methoxy-phenyl)-[2,5′]bithiazolyl-2′-ylamino]-benzenesulfonamide] returned a melting point of 195 to 198 °C. Besides, the inhibition constant Ki on CDK2/Cyclin A complex worked out at 1800 nM. The “% inhibition @ 20 μM” value at CHK1 was 2.6% and 7.6%. On CDK4/Cyclin D3 complex, the inhibitory constant (Ki) is 7300 nM. In addition, in [1] (Table 2), the Ki was 2900 nM.
Regarding `Cc1sc(-c2sc(Nc3ccc(S(N)(=O)=O)cc3)nc2N)nc1-c1ccc(F)cc1` [A(14), 4-[4′-Amino-4-(4-fluoro-phenyl)-5-methyl-[2,5′]bithiazolyl-2′-ylamino]-benzenesulfonamide], the melting point is 145 to 148 °C (dec.). For the same molecule, the inhibition constant Ki at CDK2/Cyclin A complex was found to be 3100 nM. The inhibitory constant (Ki) at CDK4/Cyclin D3 complex worked out at 7000 nM. The Ki in [1] (Table 2) is 1900 nM.
Consider `Nc1nc(Nc2ccc(S(N)(=O)=O)cc2)sc1-c1nc(-c2cccc(O)c2)cs1` [A(16), 4-[4′-Amino-4-(3-hydroxy-phenyl)-[2,5′]bithiazolyl-2′-ylamino]-benzenesulfonamide], for which the melting point is 205 to 209 °C (dec.). The Ki on CDK2/Cyclin A complex turned out to be 220 nM. Further, the inhibition at 20 µM at CHK1 is 35.4%. Besides, the inhibition constant (Ki) on CDK4/Cyclin D3 complex was 980 nM. The Ki in [1] (Table 2) amounted to 22 nM.
Turning to `COc1cc(O)cc(-c2csc(-c3sc(Nc4cc(OC)c(OC)c(OC)c4)nc3N)n2)c1` [A(19), 3-[4′-Amino-2′-(3,4,5-trimethoxy-phenylamino)-[2,5′]bithiazolyl-4-yl]-5-methoxyphenol], the melting point is 208 to 210 °C. For the same molecule, on CHK1, the inhibition at 20 µM came out at 78.5%. This molecule also had an inhibitory constant (Ki) at FGF-R1 (Table 2) of 390 nM. Besides, the Ki in series [2] turned out to be 4 nM.
`Nc1nc(Nc2ccc(S(N)(=O)=O)cc2)sc1-c1nc(-c2cc(-c3ccc(Cl)cc3Cl)co2)cs1` [A(28), 4-{4′-Amino-4-[4-(2,4-dichloro-phenyl)-furan-2-yl]-[2,5′]bithiazolyl-2′-ylamino}-benzenesulfonamide]: the melting point was 225 to 230 °C (dec.). Further, at CDK2/Cyclin A complex, the Ki was 13000 nM. Besides, the “% inhibition @ 20 μM” value at CHK1 is 9.3% and 0.4%. At CDK4/Cyclin D3 complex, the inhibition constant (Ki) amounted to 24000 nM. The Ki in [1] (Table 2) stood at 131000 nM.
Consider `Nc1nc(Nc2ccc(S(N)(=O)=O)cc2)sc1-c1nc(/C=C/c2ccccc2)cs1` [A(63), 4-(4′-Amino-4-styryl-[2,5′]bithiazolyl-2′-ylamino)-benzenesulfonamide], for which the melting point was 140 to 143 °C (dec.). For the same molecule, the inhibition constant Ki at CDK2/Cyclin A complex was 2000 nM. For the same molecule, the “% inhibition @ 20 μM” value on CHK1 was 3.8% and 5.4% and 9.8%. Further, the inhibition constant Ki on CDK4/Cyclin D3 complex worked out at 20000 nM.
For the molecule `CCn1nc(C)cc1C(=O)Nc1ccc(C)c(-c2noc(-c3sc(Nc4cccc(CN5CCCC5)c4)nc3N)n2)c1` [B(9)], the inhibition at 1 µM at LCK tyrosine kinase amounted to 91%; at FGF-R1, 78%. This molecule yielded an inhibition constant Ki in series [3] of 0.36 nM.
Consider `COc1cccc(C(=O)Nc2ccc(C)c(-c3noc(-c4sc(Nc5ccccc5)nc4N)n3)c2)c1` [B(35)], for which the inhibition at 1 µM was 34% at LCK tyrosine kinase and 39% on FGF-R1. In series [3], the Ki is 0.26 nM.
As to `COc1cccc(C(=O)Nc2ccc(C)c(-c3noc(-c4sc(Nc5ccc(N6CCOCC6)nc5)nc4N)n3)c2)c1` [B(36), 3-[3-[(3-methoxybenzoyl)amino]-6-methyl-phenyl]-5-[2-[3-amino-6-(4-morpholinyl)-pyridinyl]-4-amino-5-thiazolyl]-1,2,4-oxadiazole], the inhibition at 1 µM at LCK tyrosine kinase is 72%; at FGF-R1 it was 23%. Also, affinity in series [3] was put at a Ki of 0.56 nM.
On to `COc1cc(Nc2nc(N)c(-c3nc(-c4cccc(N)c4)cs3)s2)cc(OC)c1OC` [C(1)], for which the melting point was 205 to 210 °C (dec.). For the same molecule, the Ki in series [1] (Table 1) worked out at 300 nM.
Broadly, the IC50 is the concentration that gives 50% inhibition. For `COc1cc(Nc2nc(N)c(-c3nc(-c4cccc(NC(=O)c5cnc6ccccc6c5)c4)cs3)s2)cc(OC)c1OC` [D(60), Quinoline-3-carboxylic acid {3-[4′-amino-2′-(3,4,5-trimethoxy-phenylamino)-[2,5′]bithiazolyl-4-yl]-phenyl}-amide], the inhibition at 1 µM at LCK tyrosine kinase is 11%; on FGF-R1, 10%. In series [3], the Ki came out at 1.4 nM. In series [4], the IC50 was > 100 nM.
In the case of `CNC(=O)Nc1nc(N)c(-c2nc(-c3cccc(NC(=O)c4cccc(Cl)c4)c3)cs2)s1` [F(10), N-{3-[4′-Amino-2′-(3-methyl-ureido)-[2,5′]bithiazolyl-4-yl]-phenyl}-3-chloro-benzamide], the inhibition at 1 µM stood at 42% on LCK tyrosine kinase and 47% at FGF-R1. The molecule also yielded a Ki in series [3] of 0.14 nM. This molecule returned an IC50 in [4] of 8.5 nM.
`COc1cccc(C(=O)Nc2cc(-c3noc(-c4sc(NC(=O)NCCCN5CCCC5=O)nc4N)n3)c(F)cc2F)c1` [O(2)]: the figures for the inhibition at 1 µM on LCK tyrosine kinase and at FGF-R1 were 7% and 28%, respectively. This molecule also showed a Ki in [3] of 0.33 nM.
As to `COCC(C)NC(=O)Nc1nc(N)c(-c2nc(-c3cc(NC(=O)c4cccc(OC)c4)c(F)cc3F)cs2)s1` (stereo not drawn) [O(14), N-(5-{4′-Amino-2′-[3-(2-methoxy-1-methyl-ethyl)-ureido]-[2,5′]bithiazolyl-4-yl}-2,4-difluoro-phenyl)-3-methoxy-benzamide], the figures for the inhibition at 1 µM at LCK tyrosine kinase and at FGF-R1 were 0% and 10%, respectively. In series [4], this molecule returned a concentration for half-maximal inhibition (IC50) of 16 nM.
With `COc1cccc(C(=O)Nc2cc(-c3csc(-c4sc(NC(=O)NCCCN5CCCC5=O)nc4N)n3)c(F)cc2F)c1` [O(15), N-[5-(4′-Amino-2′-{3-[3-(2-oxo-pyrolidin-1-yl)-propyl]-ureido}-[2,5′]bithiazolyl-4-yl)-2,4-difluoro-phenyl]-3-methoxy-benzamide], the inhibition at 1 µM on LCK tyrosine kinase turned out to be 2%; at FGF-R1, 28%. Also, the Ki in [3] came out at 0.5 nM.
